Experimental data taken from ChEMBL document CHEMBL5137065, “Recent Advances with KDM4 Inhibitors and Potential Applications” (J Med Chem, 2022).

Experiments:
[1] = molecular target: T1, Lysine-specific demethylase 4A (Homo sapiens, UniProt O75164)
T1 sequence (O75164 whole entry): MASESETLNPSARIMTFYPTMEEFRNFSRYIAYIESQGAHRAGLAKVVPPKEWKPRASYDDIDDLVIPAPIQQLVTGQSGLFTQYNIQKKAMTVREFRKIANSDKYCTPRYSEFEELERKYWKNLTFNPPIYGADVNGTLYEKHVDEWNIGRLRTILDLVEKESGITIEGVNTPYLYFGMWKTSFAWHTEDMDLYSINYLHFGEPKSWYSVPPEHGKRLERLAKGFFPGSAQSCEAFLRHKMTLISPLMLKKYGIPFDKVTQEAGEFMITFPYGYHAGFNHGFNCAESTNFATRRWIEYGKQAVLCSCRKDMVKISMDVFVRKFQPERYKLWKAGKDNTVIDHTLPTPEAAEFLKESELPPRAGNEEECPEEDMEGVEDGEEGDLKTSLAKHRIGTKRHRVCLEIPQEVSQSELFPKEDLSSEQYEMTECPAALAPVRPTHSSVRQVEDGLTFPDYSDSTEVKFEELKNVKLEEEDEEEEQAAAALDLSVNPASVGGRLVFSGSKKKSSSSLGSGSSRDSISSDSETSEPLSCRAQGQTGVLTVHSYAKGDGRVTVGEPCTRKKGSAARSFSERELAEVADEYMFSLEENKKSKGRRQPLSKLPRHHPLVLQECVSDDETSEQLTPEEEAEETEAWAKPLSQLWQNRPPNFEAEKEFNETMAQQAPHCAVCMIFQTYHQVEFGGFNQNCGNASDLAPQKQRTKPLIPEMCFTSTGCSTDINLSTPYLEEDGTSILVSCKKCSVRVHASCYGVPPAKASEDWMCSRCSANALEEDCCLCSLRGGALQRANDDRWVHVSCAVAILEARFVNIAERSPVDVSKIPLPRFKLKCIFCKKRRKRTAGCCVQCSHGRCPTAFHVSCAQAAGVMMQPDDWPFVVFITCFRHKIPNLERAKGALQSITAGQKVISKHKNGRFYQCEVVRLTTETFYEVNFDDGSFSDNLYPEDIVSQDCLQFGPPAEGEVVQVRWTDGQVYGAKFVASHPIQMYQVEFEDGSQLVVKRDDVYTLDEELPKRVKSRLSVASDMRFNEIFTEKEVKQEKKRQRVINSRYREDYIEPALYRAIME

[2] = molecular target: T2, Lysine-specific demethylase 4C (Homo sapiens, UniProt Q9H3R0); assay: Inhibition of human KDM4C (1 to 347 residues) catalytic domain measured formaldehyde dehydrogenase (FDH)-coupled fluorescence assay
T2 sequence (Q9H3R0 whole entry): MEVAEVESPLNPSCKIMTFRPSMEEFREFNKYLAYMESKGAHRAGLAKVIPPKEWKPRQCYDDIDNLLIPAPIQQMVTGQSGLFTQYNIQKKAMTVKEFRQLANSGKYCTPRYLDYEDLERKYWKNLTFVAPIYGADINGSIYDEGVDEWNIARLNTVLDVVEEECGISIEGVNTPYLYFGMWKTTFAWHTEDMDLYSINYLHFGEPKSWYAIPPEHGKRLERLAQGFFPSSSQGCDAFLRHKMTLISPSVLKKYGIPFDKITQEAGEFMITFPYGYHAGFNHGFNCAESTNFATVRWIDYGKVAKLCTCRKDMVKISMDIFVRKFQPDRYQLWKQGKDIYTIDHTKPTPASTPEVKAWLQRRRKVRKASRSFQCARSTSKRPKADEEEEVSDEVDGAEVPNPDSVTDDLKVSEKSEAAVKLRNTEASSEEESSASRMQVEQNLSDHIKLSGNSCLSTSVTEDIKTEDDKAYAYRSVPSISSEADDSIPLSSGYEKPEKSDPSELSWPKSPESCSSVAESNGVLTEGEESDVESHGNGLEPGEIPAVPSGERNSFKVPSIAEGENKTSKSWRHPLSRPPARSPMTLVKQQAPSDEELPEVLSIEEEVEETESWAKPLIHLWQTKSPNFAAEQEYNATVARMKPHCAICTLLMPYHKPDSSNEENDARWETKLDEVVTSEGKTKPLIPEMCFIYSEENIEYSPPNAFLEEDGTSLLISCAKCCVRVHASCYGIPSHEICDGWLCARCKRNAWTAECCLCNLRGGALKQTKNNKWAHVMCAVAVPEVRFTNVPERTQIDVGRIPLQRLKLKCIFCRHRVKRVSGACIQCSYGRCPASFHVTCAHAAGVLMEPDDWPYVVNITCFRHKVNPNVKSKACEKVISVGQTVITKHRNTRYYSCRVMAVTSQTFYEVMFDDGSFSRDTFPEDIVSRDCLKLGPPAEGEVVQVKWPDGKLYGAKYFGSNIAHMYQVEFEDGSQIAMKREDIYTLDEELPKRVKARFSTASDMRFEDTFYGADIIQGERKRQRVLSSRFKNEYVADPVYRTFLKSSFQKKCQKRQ

[3] = molecular target: T3, Lysine-specific demethylase 4E (Homo sapiens, UniProt B2RXH2); assay: Inhibition of human KDM4E (1 to 378 residues) catalytic domain measured formaldehyde dehydrogenase (FDH)-coupled fluorescence assay
T3 sequence (B2RXH2 whole entry): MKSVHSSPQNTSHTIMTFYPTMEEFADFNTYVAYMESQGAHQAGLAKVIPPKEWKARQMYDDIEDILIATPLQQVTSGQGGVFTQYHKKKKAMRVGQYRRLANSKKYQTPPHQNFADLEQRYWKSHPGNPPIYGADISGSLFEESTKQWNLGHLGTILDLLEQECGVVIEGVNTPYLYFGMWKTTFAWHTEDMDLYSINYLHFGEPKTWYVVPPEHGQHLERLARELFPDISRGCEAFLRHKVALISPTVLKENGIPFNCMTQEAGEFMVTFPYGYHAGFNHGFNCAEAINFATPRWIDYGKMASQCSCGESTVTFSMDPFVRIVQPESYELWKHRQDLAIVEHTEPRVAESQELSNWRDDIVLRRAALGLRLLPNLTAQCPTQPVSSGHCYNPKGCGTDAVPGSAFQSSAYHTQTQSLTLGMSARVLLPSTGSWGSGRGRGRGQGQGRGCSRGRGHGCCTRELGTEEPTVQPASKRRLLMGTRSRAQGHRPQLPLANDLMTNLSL

Measured: IC50

COC(=O)Cc1cc(O)n(-c2nc3ccccc3[nH]2)n1
4 µM: [1] | [2] | [3]
